Experimental data published in ChEMBL document CHEMBL1132794, “Structure-based design of six novel classes of nonpeptide antagonists of the bradykinin B2 receptor” (Bioorg Med Chem Lett, 2000).

Experiments:
Assay type in all cases: cell-based; call rule not given here
B2 bradykinin receptor [1] = target: T1, B2 bradykinin receptor (Homo sapiens, UniProt P30411); test: Compound was assayed for binding against the human Bradykinin receptor B2 expressed in CHO cells; NA means Inactive
T1 sequence (P30411 whole entry): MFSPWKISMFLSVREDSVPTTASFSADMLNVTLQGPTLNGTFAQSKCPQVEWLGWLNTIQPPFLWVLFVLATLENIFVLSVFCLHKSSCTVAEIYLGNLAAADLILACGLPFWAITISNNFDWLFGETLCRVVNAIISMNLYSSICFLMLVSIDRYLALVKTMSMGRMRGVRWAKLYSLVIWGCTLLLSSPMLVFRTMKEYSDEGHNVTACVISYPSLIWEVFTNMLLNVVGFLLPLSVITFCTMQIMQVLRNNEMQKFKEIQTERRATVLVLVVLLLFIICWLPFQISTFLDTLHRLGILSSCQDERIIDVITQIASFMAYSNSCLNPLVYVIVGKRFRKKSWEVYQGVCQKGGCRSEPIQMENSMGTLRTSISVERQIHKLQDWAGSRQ

B2 bradykinin receptor [2] = target: T1, B2 bradykinin receptor; test: Compound was assayed for binding against the human Bradykinin receptor B2 expressed in CHO cells
B2 bradykinin receptor [3] = target: T1, B2 bradykinin receptor; test: Compound was assayed for binding against the human Bradykinin receptor B2 expressed in CHO cells; 0.2-16

Kd (B2 bradykinin receptor [2])	Compound	also measured
17 µM	NCc1ccc(CNC(=O)[C@@H](CN)n2cccc2CNC(=O)C(c2ccccc2)C2CCCCC2)cc1 (stereo partly specified)	
101 µM	NCc1ccc(CNC(=O)[C@@H](CN)n2cccc2CNC(=O)CC2CCCCC2)cc1	
28 µM	NCCCC[C@H](C(=O)NCc1ccc(CN)cc1)n1cccc1C(=O)NC(Cc1ccccc1)c1ccccc1 (stereo partly specified)	
5 µM	CCCCc1ccnc([C@H](CC2CCCCC2)NC(=O)c2ccc(CNC(=N)N)cc2)c1	

The next lines start with the compound.

Compound	Kd (B2 bradykinin receptor [2])	also measured
NCCCC[C@H](C(=O)NCc1ccc(CN)cc1)n1cccc1C(=O)NCCc1ccccc1		Kd (B2 bradykinin receptor [1]): Not Active
N=C(N)NCCC1N=C(c2ccccc2)c2cc(N(Cc3ccccc3)Cc3ccccc3)ccc2N(CCCN=C(N)N)C1=O (stereo unspecified)	4.5 µM	
N=C(N)NCC1N=C(c2ccccc2)c2cc(N(Cc3ccccc3)Cc3ccccc3)ccc2N(CCCN=C(N)N)C1=O (stereo unspecified)	12 µM	
NCCCN1C(=O)C(CCN)N=C(c2ccccc2)c2cc(N(Cc3ccccc3)Cc3ccccc3)ccc21 (stereo unspecified)	15 µM	
NCCCC[C@@H]1NC(=O)[C@H](c2ccccc2)NC(=O)[C@H](CNC(=O)Cc2ccccc2)NC(=O)[C@H]2Cc3ccccc3CN2C(=O)[C@@H]2CC3CCCCC3N2C(=O)[C@H](CN)NC1=O (stereo partly specified)		Kd (B2 bradykinin receptor [3]; cho): 200 nM
CCCCC1(CCCC)Oc2cccc(N(CCCN)C(=O)c3ccc(CN)cc3)c2O1	14 µM	
N=C(N)NC[C@H]1C[C@@H](OCc2ccccc2)CN1C(=O)c1ccccc1		Kd (B2 bradykinin receptor [1]): Not Active
NCCCN1C(=O)C(CN)N=C(c2ccccc2)c2cc(N(Cc3ccccc3)Cc3ccccc3)ccc21 (stereo unspecified)	4.3 µM	
NC[C@H]1C[C@@H](OCc2ccccc2)CN1C(=O)c1ccc2ccccc2c1	66 µM	
CCCCc1ccnc([C@H](CC2CCCCC2)NC(=O)c2ccc(CN)cc2)c1	7.4 µM	
N=C(N)NCCC[C@@H]1NC(=O)N2C3CCCCC3C[C@H]2C(=O)N2Cc3ccccc3C[C@@H]2C(=O)NCC[C@@H](NC(=O)CCc2ccccc2)C(=O)CCNC1=O (stereo partly specified)		Kd (B2 bradykinin receptor [3]): 200 nM
NC[C@H]1C[C@@H](OCc2ccccc2)CN1C(=O)c1ccccc1		Kd (B2 bradykinin receptor [1]): Not Active
NC(N)=NC[C@H]1C[C@@H](OCc2ccccc2)CN1C(=O)c1ccc2ccccc2c1	15 µM	
CCCCC1(CCCC)Oc2cccc(NC(=O)c3ccc(CN)cc3)c2O1	13 µM	
CCCCc1ccnc([C@H](CC2CCCCC2)NC(=O)CCCCN)c1	62 µM	
CCCCc1ccnc([C@H](CC2CCCCC2)NC(=O)CCCCN(CCCC)CCCC)c1	23 µM	
NCc1cccc(Cn2ccc3c2C(=O)C(Cc2ccccc2)(Cc2ccccc2)CC3)c1	7.6 µM	
